Patent EP0025288A1, “Derivatives of monic acid, processes for their preparation, compositions containing them and their preparation” (priority 1979, dated 1981)

Experiments:
E coli NCTC 10418 [1] = assay: MIC, human bacteria, serial dilution in nutrient agar; assay type: cell-based; details: nutrient agar containing 5% 'chocolated' horse blood
E coli ESS = assay: as above; assay type: cell-based; details: nutrient agar containing 5% 'chocolated' horse blood
P mirabilis 889 = assay: as above; assay type: cell-based; details: nutrient agar containing 5% 'chocolated' horse blood
K aerogenes A = assay: as above; assay type: cell-based; details: nutrient agar containing 5% 'chocolated' horse blood
Ps aeruginosa 10662 = assay: as above; assay type: cell-based; details: nutrient agar containing 5% 'chocolated' horse blood
[2] = system: Pasteurella multocida 1633; assay: as above; assay type: cell-based; details: nutrient agar containing 5% 'chocolated' horse blood
[3] = system: Haemophilus influenzae Wy21; assay: as above; assay type: cell-based; details: nutrient agar containing 5% 'chocolated' horse blood
[4] = system: Neisseria catarrhalis 1502; assay: as above; assay type: cell-based; details: Neisseria catarrhalis 1502 (footnote a); nutrient agar containing 5% 'chocolated' horse blood
Bacillus subtilis 6633 = assay: as above; assay type: cell-based; details: nutrient agar containing 5% 'chocolated' horse blood
[5] = system: Corynebacterium zerosis 9755; assay: as above; assay type: cell-based; details: nutrient agar containing 5% 'chocolated' horse blood
Sercina lutea 8340 = assay: as above; assay type: cell-based; details: nutrient agar containing 5% 'chocolated' horse blood
Staph aureus Oxford [6] = assay: as above; assay type: cell-based; details: nutrient agar containing 5% 'chocolated' horse blood
Staph aureus Russell = assay: as above; assay type: cell-based; details: nutrient agar containing 5% 'chocolated' horse blood
Staph aureus W2827 = assay: as above; assay type: cell-based; details: nutrient agar containing 5% 'chocolated' horse blood
Strep faecalis I = assay: as above; assay type: cell-based; details: nutrient agar containing 5% 'chocolated' horse blood
Strep pyogenes A 64/848 = assay: as above; assay type: cell-based; details: nutrient agar containing 5% 'chocolated' horse blood
Strep pyogenes B 2788 = assay: as above; assay type: cell-based; details: nutrient agar containing 5% 'chocolated' horse blood
Strep pyogenes C 2761 = assay: as above; assay type: cell-based; details: nutrient agar containing 5% 'chocolated' horse blood
E coli NCTC 10418 [7] = assay: MIC, veterinary bacteria; assay type: cell-based; details: veterinary bacteria (Table 2)
E coli E1 = assay: MIC, veterinary bacteria; assay type: cell-based; details: veterinary bacteria (Table 2)
S dublin S7 = assay: MIC, veterinary bacteria; assay type: cell-based; details: veterinary bacteria (Table 2)
S typhimurium S18 = assay: MIC, veterinary bacteria; assay type: cell-based; details: veterinary bacteria (Table 2)
Bord bronchiseptica BO8 = assay: MIC, veterinary bacteria; assay type: cell-based; details: veterinary bacteria (Table 2)
Bord bronchisptica BO9 = assay: MIC, veterinary bacteria; assay type: cell-based; details: veterinary bacteria (Table 2)
Past multocida PA1 = assay: MIC, veterinary bacteria; assay type: cell-based; details: veterinary bacteria (Table 2)
Past multocida PA2 = assay: MIC, veterinary bacteria; assay type: cell-based; details: veterinary bacteria (Table 2)
Past Haemolytica PA5 = assay: MIC, veterinary bacteria; assay type: cell-based; details: veterinary bacteria (Table 2)
[8] = system: Erysipelothrix rhusiopathiae NCTC 8163; assay: MIC, veterinary bacteria; assay type: cell-based; details: veterinary bacteria (Table 2)
[9] = system: Corynebacterium pyogenes CY1; assay: MIC, veterinary bacteria; assay type: cell-based; details: veterinary bacteria (Table 2)
[10] = system: Staph aureus B4 (pen resis); assay: MIC, veterinary bacteria; assay type: cell-based; details: veterinary bacteria (Table 2)
[11] = system: Staph aureus 152 (pen sens); assay: MIC, veterinary bacteria; assay type: cell-based; details: veterinary bacteria (Table 2)
Staph aureus Oxford [12] = assay: MIC, veterinary bacteria; assay type: cell-based; details: veterinary bacteria (Table 2)
[13] = system: Strep suis (group D) SPS11; assay: MIC, veterinary bacteria; assay type: cell-based; details: veterinary bacteria (Table 2)
Strep uberis SPU1 = assay: MIC, veterinary bacteria; assay type: cell-based; details: veterinary bacteria (Table 2)
Strep dysgalaciae SPD1 = assay: MIC, veterinary bacteria; assay type: cell-based; details: veterinary bacteria (Table 2)
Strep agalactiae SPA1 = assay: MIC, veterinary bacteria; assay type: cell-based; details: veterinary bacteria (Table 2)
M. suipneumoniae NB12 = assay: MIC, anti-mycoplasmal, Friis broth solidified with 0.9% agarose; assay type: cell-based; details: inoculum 10^3 to 10^5 C.F.U., 6 days incubation at 37°C
M. suipneumoniae JF 435 = assay: as above; assay type: cell-based; details: inoculum 10^3 to 10^5 C.F.U., 6 days incubation at 37°C
M. suipneumoniae HK(2) = assay: as above; assay type: cell-based; details: inoculum 10^3 to 10^5 C.F.U., 6 days incubation at 37°C
M. suipneumoniae Str. 11 = assay: as above; assay type: cell-based; details: inoculum 10^3 to 10^5 C.F.U., 6 days incubation at 37°C
[14] = system: M. suipneumoniae J2206/183b; assay: as above; assay type: cell-based; details: inoculum 10^3 to 10^5 C.F.U., 6 days incubation at 37°C
M. suipneumoniae MS 16 = assay: as above; assay type: cell-based; details: inoculum 10^3 to 10^5 C.F.U., 6 days incubation at 37°C
[15] = system: M. suipneumoniae PW/C/210; assay: as above; assay type: cell-based; details: inoculum 10^3 to 10^5 C.F.U., 6 days incubation at 37°C
M. suipneumoniae LABER = assay: as above; assay type: cell-based; details: inoculum 10^3 to 10^5 C.F.U., 6 days incubation at 37°C
M. suipneumoniae UCD 1 = assay: as above; assay type: cell-based; details: inoculum 10^3 to 10^5 C.F.U., 6 days incubation at 37°C
M. suipneumoniae TAM 6N = assay: as above; assay type: cell-based; details: inoculum 10^3 to 10^5 C.F.U., 6 days incubation at 37°C
[16] = system: M. suipneumoniae ATCC 25095; assay: as above; assay type: cell-based; details: inoculum 10^3 to 10^5 C.F.U., 6 days incubation at 37°C
[17] = system: M. suipneumoniae NCTC 10110; assay: as above; assay type: cell-based; details: inoculum 10^3 to 10^5 C.F.U., 6 days incubation at 37°C
M. hyorhinis ATCC 23234 = assay: as above; assay type: cell-based; details: inoculum 10^3 to 10^5 C.F.U., 6 days incubation at 37°C
M. hyorhinis ATCC 25021 = assay: as above; assay type: cell-based; details: inoculum 10^3 to 10^5 C.F.U., 6 days incubation at 37°C
[18] = system: M. hyosynoviae ATCC 25591; assay: as above; assay type: cell-based; details: inoculum 10^3 to 10^5 C.F.U., 6 days incubation at 37°C
M. bovis NCTC 10131 = assay: microbe, parasite or virus in culture; assay type: cell-based; details: M. bovis NCTC 10131; inoculum 10^3 to 10^5 C.F.U., 6 days incubation at 37°C
[19] = system: M. bovigenitalium ATCC 14173; assay: MIC, anti-mycoplasmal, Friis broth solidified with 0.9% agarose; assay type: cell-based; details: inoculum 10^3 to 10^5 C.F.U., 6 days incubation at 37°C
M. dispar NCTC 10125 = assay: as above; assay type: cell-based; details: inoculum 10^3 to 10^5 C.F.U., 6 days incubation at 37°C
M. gallisepticum S6 = assay: as above; assay type: cell-based; details: inoculum 10^3 to 10^5 C.F.U., 6 days incubation at 37°C
M. pneumoniae ATCC 15492 = assay: as above; assay type: cell-based; details: inoculum 10^3 to 10^5 C.F.U., 6 days incubation at 37°C
pig serum = assay: Serum binding by ultrafiltration; assay type: in vitro ADME; details: compounds at 8 mcg/ml, microbiological assay (B. subtilis ATCC 6633)
Description: Serum binding was assessed by ultrafiltration of procine serum containing compounds at 8 mcg/ml, and through an Amicon CF50A ultrafiltration cone. Separation of ultrafiltrate was achieved by centrifugation.

## C^yclopentan-2-onyl monate A [Example 6]
E coli NCTC 10418 [1]
  MIC: >100 µm/ml
E coli ESS
  MIC: 2.5 µm/ml
P mirabilis 889
  MIC: 100 µm/ml
K aerogenes A
  MIC: >100 µm/ml
Ps aeruginosa 10662
  MIC: >100 µm/ml
[2]
  MIC: 1.0 µm/ml
[3]
  MIC: 0.5 µm/ml
[4]
  MIC: ^a1.0 µm/ml
Bacillus subtilis 6633
  MIC: 2.5 µm/ml
[5]
  MIC: >100 µm/ml
Sercina lutea 8340
  MIC: >100 µm/ml
Staph aureus Oxford [6]
  MIC: 2.5 µm/ml
Staph aureus Russell
  MIC: 5.0 µm/ml
Staph aureus W2827
  MIC: 5.0 µm/ml
Strep faecalis I
  MIC: >100 µm/ml
Strep pyogenes A 64/848
  MIC: 2.5 µm/ml
Strep pyogenes B 2788
  MIC: 5.0 µm/ml
Strep pyogenes C 2761
  MIC: 5.0 µm/ml
E coli NCTC 10418 [7]
  MIC: >80 µg/mL
E coli E1
  MIC: >80 µg/mL
S dublin S7
  MIC: >80 µg/mL
S typhimurium S18
  MIC: >80 µg/mL
Bord bronchiseptica BO8
  MIC: 80 µg/mL
Bord bronchisptica BO9
  MIC: 20 µg/mL
Past multocida PA1
  MIC: .625 µg/mL
Past multocida PA2
  MIC: .312 µg/mL
Past Haemolytica PA5
  MIC: 5 µg/mL
[8]
  MIC: >80 µg/mL
[9]
  MIC: >80 µg/mL
[10]
  MIC: 2.5 µg/mL
[11]
  MIC: 2.5 µg/mL
Staph aureus Oxford [12]
  MIC: 2.5 µg/mL
[13]
  MIC: 20 µg/mL
Strep uberis SPU1
  MIC: 1.25 µg/mL
Strep dysgalaciae SPD1
  MIC: 1.25 µg/mL
Strep agalactiae SPA1
  MIC: 2.5 µg/mL
M. suipneumoniae NB12
  in vitro MIC: 2.5 µg/mL
M. suipneumoniae JF 435
  in vitro MIC: 10 µg/mL
M. suipneumoniae HK(2)
  in vitro MIC: 10 µg/mL
M. suipneumoniae Str. 11
  in vitro MIC: 2.5 µg/mL
[14]
  in vitro MIC: 10 µg/mL
M. suipneumoniae MS 16
  in vitro MIC: 2.5 µg/mL
[15]
  in vitro MIC: 2.5 µg/mL
M. suipneumoniae LABER
  in vitro MIC: 2.5 µg/mL
M. suipneumoniae UCD 1
  in vitro MIC: 10 µg/mL
M. suipneumoniae TAM 6N
  in vitro MIC: 5.0 µg/mL
[16]
  in vitro MIC: 5.0 µg/mL
[17]
  in vitro MIC: 10 µg/mL
M. hyorhinis ATCC 23234
  in vitro MIC: 2.5 µg/mL
M. hyorhinis ATCC 25021
  in vitro MIC: 2.5 µg/mL
[18]
  in vitro MIC: 2.5 µg/mL
M. bovis NCTC 10131
  in vitro MIC: 0.25 µg/mL
[19]
  in vitro MIC: 0.25 µg/mL
M. dispar NCTC 10125
  in vitro MIC: 0.5 µg/mL
M. gallisepticum S6
  in vitro MIC: >10 µg/mL
M. pneumoniae ATCC 15492
  in vitro MIC: 10 µg/mL
Pig serum
  % bound to pig serum: 35.6%
